Experiments:
[1] = Cytotoxicity against human SGC7901 cells assessed as growth inhibition after 48 hrs by MTT assay; format: functional, cell-based; conditions: SGC-7901, 48 h
[2] = system: KB; assay: Cytotoxicity against human KB cells assessed as growth inhibition after 48 hrs by MTT assay; format: functional, cell-based
[3] = Cytotoxicity against human HT1080 cells assessed as growth inhibition after 48 hrs by MTT assay; format: functional, cell-based; conditions: HT-1080, 48 h
[4] = Cell cycle arrest in human HT1080 cells assessed as accumulation at G0/G1 phase at 0.5 times IC50 after 24 hrs by propidium iodide staining-based flow cytometric analysis (reference value: 49.18%); format: functional; conditions: HT-1080
[5] = Cell cycle arrest in human HT1080 cells assessed as accumulation at S phase at 0.5 times IC50 after 24 hrs by propidium iodide staining-based flow cytometric analysis (reference value: 21.01%); format: functional; conditions: HT-1080
[6] = Cell cycle arrest in human HT1080 cells assessed as accumulation at G2/M phase at 0.5 times IC50 after 24 hrs by propidium iodide staining-based flow cytometric analysis (reference value: 23.71%); format: functional; conditions: HT-1080
[7] = Cell cycle arrest in human HT1080 cells assessed as accumulation at subG1 phase at 0.5 times IC50 after 24 hrs by propidium iodide staining-based flow cytometric analysis (reference value: 0.82%); format: functional; conditions: HT-1080
[8] = Cell cycle arrest in human HT1080 cells assessed as accumulation at G0/G1 phase at IC50 after 24 hrs by propidium iodide staining-based flow cytometric analysis (reference value: 49.18%); format: functional; conditions: HT-1080
[9] = Cell cycle arrest in human HT1080 cells assessed as accumulation at S phase at IC50 after 24 hrs by propidium iodide staining-based flow cytometric analysis (reference value: 21.01%); format: functional; conditions: HT-1080
[10] = Cell cycle arrest in human HT1080 cells assessed as accumulation at G2/M phase at IC50 after 24 hrs by propidium iodide staining-based flow cytometric analysis (reference value: 23.71%); format: functional; conditions: HT-1080
[11] = Cell cycle arrest in human HT1080 cells assessed as accumulation at subG1 phase at IC50 after 24 hrs by propidium iodide staining-based flow cytometric analysis (reference value: 0.82%); format: functional; conditions: HT-1080
[12] = Cell cycle arrest in human HT1080 cells assessed as accumulation at G0/G1 phase at 2 times IC50 after 24 hrs by propidium iodide staining-based flow cytometric analysis (reference value: 49.18%); format: functional; conditions: HT-1080
[13] = Cell cycle arrest in human HT1080 cells assessed as accumulation at S phase at 2 times IC50 after 24 hrs by propidium iodide staining-based flow cytometric analysis (reference value: 21.01%); format: functional; conditions: HT-1080
[14] = Cell cycle arrest in human HT1080 cells assessed as accumulation at G2/M phase at 2 times IC50 after 24 hrs by propidium iodide staining-based flow cytometric analysis (reference value: 23.71%); format: functional; conditions: HT-1080
[15] = Cell cycle arrest in human HT1080 cells assessed as accumulation at subG1 phase at 2 times IC50 after 24 hrs by propidium iodide staining-based flow cytometric analysis (reference value: 0.82%); format: functional; conditions: HT-1080
[16] = Cell cycle arrest in human HT1080 cells assessed as accumulation at G0/G1 phase at 0.5 times IC50 after 48 hrs by propidium iodide staining-based flow cytometric analysis (reference value: 41.60%); format: functional; conditions: HT-1080
[17] = Cell cycle arrest in human HT1080 cells assessed as accumulation at S phase at 0.5 times IC50 after 48 hrs by propidium iodide staining-based flow cytometric analysis (reference value: 15.11%); format: functional; conditions: HT-1080
[18] = Cell cycle arrest in human HT1080 cells assessed as accumulation at G2/M phase at 0.5 times IC50 after 48 hrs by propidium iodide staining-based flow cytometric analysis (reference value: 31.39%); format: functional; conditions: HT-1080
[19] = Cell cycle arrest in human HT1080 cells assessed as accumulation at subG1 phase at 0.5 times IC50 after 48 hrs by propidium iodide staining-based flow cytometric analysis (reference value: 1.86%); format: functional; conditions: HT-1080
[20] = Cell cycle arrest in human HT1080 cells assessed as accumulation at G0/G1 phase at IC50 after 48 hrs by propidium iodide staining-based flow cytometric analysis (reference value: 41.60%); format: functional; conditions: HT-1080
[21] = Cell cycle arrest in human HT1080 cells assessed as accumulation at S phase at IC50 after 48 hrs by propidium iodide staining-based flow cytometric analysis (reference value: 15.11%); format: functional; conditions: HT-1080
[22] = Cell cycle arrest in human HT1080 cells assessed as accumulation at G2/M phase at IC50 after 48 hrs by propidium iodide staining-based flow cytometric analysis (reference value: 31.39%); format: functional; conditions: HT-1080
[23] = Cell cycle arrest in human HT1080 cells assessed as accumulation at subG1 phase at IC50 after 48 hrs by propidium iodide staining-based flow cytometric analysis (reference value: 1.86%); format: functional; conditions: HT-1080
[24] = Cell cycle arrest in human HT1080 cells assessed as accumulation at G0/G1 phase at 2 times IC50 after 48 hrs by propidium iodide staining-based flow cytometric analysis (reference value: 41.60%); format: functional; conditions: HT-1080
[25] = Cell cycle arrest in human HT1080 cells assessed as accumulation at S phase at 2 times IC50 after 48 hrs by propidium iodide staining-based flow cytometric analysis (reference value: 15.11%); format: functional; conditions: HT-1080
[26] = Cell cycle arrest in human HT1080 cells assessed as accumulation at G2/M phase at 2 times IC50 after 48 hrs by propidium iodide staining-based flow cytometric analysis (reference value: 31.39%); format: functional; conditions: HT-1080
[27] = Cell cycle arrest in human HT1080 cells assessed as accumulation at subG1 phase at 2 times IC50 after 48 hrs by propidium iodide staining-based flow cytometric analysis (reference value: 1.86%); format: functional; conditions: HT-1080
[28] = Cell cycle arrest in human HT1080 cells assessed as accumulation at G0/G1 phase after 24 to 48 hrs by propidium iodide staining-based flow cytometric analysis; format: functional; conditions: HT-1080
[29] = Cell cycle arrest in human HT1080 cells assessed as accumulation at G0/G1 phase at 0.5 to 2 times IC50 by propidium iodide staining-based flow cytometric analysis; format: functional; conditions: HT-1080, TDE = time-dependent effect
[30] = Cell cycle arrest in human HT1080 cells assessed as accumulation at G0/G1 phase after 24 hrs by propidium iodide staining-based flow cytometric analysis; format: functional; conditions: HT-1080

Structure (SMILES)	IC50 [1]	IC50 [2]	IC50 [3]	Activity [4]	Activity [5]	Activity [6]	Activity [7]	Activity [8]	Activity [9]	Activity [10]	Activity [11]	Activity [12]	Activity [13]	Activity [14]	Activity [15]	Activity [16]	Activity [17]	Activity [18]	Activity [19]	Activity [20]	other results
CC[C@H]1OC(=O)[C@H](C)[C@@H](O[C@H]2C[C@@](C)(OC)[C@@H](O)[C@H](C)O2)[C@H](C)[C@@H](O[C@@H]2O[C@H](C)C[C@H](N(C)CCN(C)[C@H]3C[C@@H](C)O[C@@H](O[C@@H]4[C@@H](C)[C@H](O[C@H]5C[C@@](C)(OC)[C@@H](O)[C@H](C)O5)[C@@H](C)C(=O)O[C@H](CC)[C@@](C)(O)[C@H](O)[C@@H](C)/C(=N\O)[C@H](C)C[C@@]4(C)OC)[C@@H]3O)[C@H]2O)[C@](C)(OC)C[C@@H](C)/C(=N/O)[C@H](C)[C@@H](O)[C@]1(C)O	7.8 µM	4.4 µM	5.3 µM	62%	18.1%	17.4%	0.6%	62.7%	15.9%	18.5%	0.77%	75.1%	10.8%	11.9%	0.85%	67.6%	13.7%	15.3%	0.75%	71.9%	Activity [21]: 12.6%; Activity [22]: 12.8%; Activity [23]: 0.77%; Activity [24]: 74.5%; Activity [25]: 11.5%; Activity [26]: 10.1%; Activity [27]: 2.47%; Activity [28]: Dose-dependent effect; Activity [29]: tde
CC[C@H]1OC(=O)[C@H](C)[C@@H](O[C@H]2C[C@@](C)(OC)[C@@H](O)[C@H](C)O2)[C@H](C)[C@@H](O[C@@H]2O[C@H](C)C[C@H](N(C)CCN(C)[C@H]3C[C@@H](C)O[C@@H](O[C@@H]4[C@@H](C)[C@H](O[C@H]5C[C@@](C)(OC)[C@@H](O)[C@H](C)O5)[C@@H](C)C(=O)O[C@H](CC)[C@@](C)(O)[C@H](O)[C@@H](C)/C(=N\O)[C@H](C)C[C@@]4(C)O)[C@@H]3O)[C@H]2O)[C@](C)(O)C[C@@H](C)/C(=N/O)[C@H](C)[C@@H](O)[C@]1(C)O	21.7 µM	6.2 µM	8.6 µM	66%	16.5%	14.4%	1.41%	71.2%	13.9%	11.5%	2.01%	66.6%	11.1%	12.5%	8.14%	80%	6.94%	10.1%	1.34%	77.3%	Activity [30]: Dose-dependent effect; Activity [21]: 9.35%; Activity [22]: 10.8%; Activity [23]: 1.34%; Activity [24]: 48.7%; Activity [25]: 14.8%; Activity [26]: 17.9%; Activity [27]: 15.7%

From ChEMBL document CHEMBL3217717, “Synthesis and antiproliferative activity of novel erythromycin derivatives” (Medchemcomm, 2010)
